Assay results: patent US6177425A, “Pyrrolopyrrolone derivatives” (Glaxo Wellcome Inc., priority 1997, dated 2001)
Structures can show the parent of a compound that is named as a salt.

What follows are molecules tested against T1, human neutrophil elastase (Homo sapiens, UniProt P08246) (assay: In vitro Assays of Human Neutrophil Elastase). Settings: purified human neutrophil elastase 11.8 nM, pH 8.6, 15 min incubation at 30° C., 0.6 mM MeO-succinyl-alanyl-alanyl-prolyl-valyl-p-nitroanilide, 405 nm.
T1 sequence (P08246 30-247 limits assumed): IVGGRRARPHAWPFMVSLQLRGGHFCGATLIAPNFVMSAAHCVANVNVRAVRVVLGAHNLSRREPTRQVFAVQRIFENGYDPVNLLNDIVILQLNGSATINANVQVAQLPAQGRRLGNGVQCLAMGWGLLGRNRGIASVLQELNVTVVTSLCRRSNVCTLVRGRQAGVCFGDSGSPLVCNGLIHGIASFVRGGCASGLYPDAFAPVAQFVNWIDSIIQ
Assay type: biochemical
Procedure: In vitro Assays of Human Neutrophil Elastase Assay contents: 50 mM Tris/HCl (pH 8.6) 150 mM NaCl 11.8 nM purified human neutrophil elastase Suitable concentrations of compound under test diluted with water from a 10 mM stock solution in dimethylsulphoxide. Values above are final concentrations after the addition of substrate solution (see below). The mixture above is incubated for fifteen minutes at 30° C. at which time the remaining elastase activity is measured for 10 minutes in a BioTek 340i plate-reader, after the addition of 0.6 mM MeO-succinyl-alanyl-alanyl-prolyl-valyl-p-nitroanilide. The rate of increase in absorbance at 405 nm is proportional to elastase activity. Enzyme activity is plotted against concentration of inhibitor and an IC50 determined using curve fitting software. 1. The compounds of Examples 1 to 7 were tested in the in vitro elastase test described earlier in the description.

Row | IC50 [nM] | SMILES
1 | 227 | CCC[C@H]1C(=O)N(S(C)(=O)=O)[C@H]2CN(C(=O)C=CCN3CCCCC3)C[C@H]12 (relative stereo) [Example 1, rel-(3R,3aS,6aR)-1-Methanesulfonyl-5-(4-piperidin-1-yl-but-2-enoyl)-3-propyl-hexahydro-pyrrolo[3,4-b]pyrrol-2-one hydrochloride]
2 | 900 | CCC[C@H]1C(=O)N(S(C)(=O)=O)[C@H]2CN(C(=O)CCCN3CCCCC3)C[C@H]12 (relative stereo) [Example 2, rel-(3R,3aS,6aR)-1-Methanesulfonyl-5-(4-piperidin-1-yl-butyryl)-3-propyl-hexahydro-pyrrolo[3,4-b]pyrrol-2-one]
3 | 229 | CCC[C@H]1C(=O)N(S(C)(=O)=O)[C@H]2CN(S(=O)(=O)c3ccc(NC(C)=O)cc3)C[C@H]12 (relative stereo) [Example 3, rel-N-[4-(1-Methanesulfonyl-2-oxo-3R-propylhexahydro-(3aS,6aR)-pyrrolo[3,4-b]pyrrole-5-sulfonyl)-phenyl]acetamide]
4 | 296 | CCC[C@H]1C(=O)N(S(C)(=O)=O)[C@H]2CN(C(=O)c3ccc(CN4CCCCC4)cc3)C[C@H]12 (relative stereo) [Example 4, rel-(3R,3aS,6aR)-1-Methanesulfonyl-5-(4-piperidin-1-ylmethyl-benzoyl)-3-propyl-hexahydro-pyrrolo[3,4-b]pyrrol-2-one hydrochloride]
5 | 222 | CCC[C@H]1C(=O)N(S(C)(=O)=O)[C@H]2CN(C(=O)c3ccc(CN4CCOCC4)cc3)C[C@H]12 (relative stereo) [Example 5, rel-(3R,3aS,6aR)-1-Methanesulfonyl-5-(4-morpholin-4-ylmethyl-benzoyl)-3-propyl-hexahydro-pyrrolo[3,4-b]pyrrol-2-one hydrochloride]
6 | 146 | CCC[C@H]1C(=O)N(S(C)(=O)=O)[C@H]2CN(C(=O)c3cc(CN4CCOCC4)on3)C[C@H]12 (relative stereo) [Example 6, rel-(3R,3aS,6aR)-1-Methanesulfonyl-5-(5-morpholin-4-ylmethyl-isoxazole-3-carbonyl)-3-propyl-hexahydro-pyrrolo[3,4-b]pyrrol-2-one hydrochloride]
7 | 399 | CCC[C@H]1C(=O)N(S(C)(=O)=O)[C@H]2CN(C(=O)c3cc(CN(C)C)on3)C[C@H]12 (relative stereo) [Example 7, rel-(3R,3aS,6aR)-5-(5-Dimethylaminomethyl-isoxazole-3-carbonyl)-1-methanesulfonyl-3-propyl-hexahydro-pyrrolo[3,4-b]pyrrol-2-one hydrochloride]
